Results: US20120029177A1, “HETEROCYCLE-AMINO ACID DERIVATIVES FOR TARGETING CANCER TISSUE AND RADIOACTIVE OR NON-RADIOACTIVE LABELED COMPOUNDS THEREOF” (SNU R&DB FOUNDATION, priority 2009, published 2012)

Columns and labels:
U87MG cells = test: In vitro cell uptake, U87MG (FIG. 1a); assay type: cell-based, human; settings: controls ^68Ga-DOTA, ^68Ga-NOTA
Experimental: Human colon cancer cell line SNU-C4 was purchased from Korea Cell Line Bank (KCLB). Human thyroid cell line ARO, human liver cancer cell line Hep3B, human glioma cell line U251MG and U87MG, and mouse colon cell line CT-26 were purchased from American Type Culture Collection (ATCC). SNU-C4 and ARO were culture in RPMI1640 (Welgene Inc., Korea) and Hep3B, U251 MG, U87MG, and CT-26 were cultured in DMEM (Welgene Inc., Korea). Penicillin, streptomycin and amphotericin B (10,000 IU/mL, 10 mg/mL and 25 μg/mL, respectively, Mediatech Inc., U.S.A.) 1% mixture and fetal bovine serum (Welgene Inc., Korea) were added to all cell culture media. Cell culture was done in 37° C. incubator with supply of 5% CO2.
About 1.8×10^5 cells/mL CT-26 and 1.2×10^5 cells/mL U87MG were put into 24-well incubation plate and incubated for 20 hr. When the each well was about 80% confluent with cells, 296 kBq/0.5 mL of ^68Ga labeled agent was added to each well. Culture supernatants were discarded at each time point and cells were washed with ice-cooled Hank's balanced salt solution (HBSS, pH7.3, Gibco, U.S.A.) 2 times. The cells were dissolved by 0.5% sodium dodecylsulfate (SDS), recovered and counted using a gamma counter (Packard, Can berra Co., U.S.A.). Total protein amount in each sample was measured by bicinchonic acid (BCA, Pierce, U.S.A.) method.

[1] = system: SNU-C4 xenografted nude mice; test: Biodistribution study in SNU-C4 xenografted nude mice after intravenous injection; assay type: in vivo, mouse; settings: for % ID/g Tumor: SNU-C4 tumor
Experimental: Human colon cancer cell line SNU-C4 was cultured in RPMI1640 media containing 10% fetal bovine serum and harvested using trypsin. The cells were washed using 10 mL PBS and centrifugation at 3,000 rpm. Each nude mouse was injected with 2×10^5 cells/0.1 mL on the right shoulder subcutaneously. On 13 days post-injection, each 10 μCi/0.1 mL of ^68Ga labeled agent was injected into the xenografted mice through the tail vein. The injected mice were sacrificed at 10 min, 30 min, 1 hr, and 2 hr, cancer, blood, muscle, heart, liver, spleen, stomach, intestine, and bone were obtained, weighed, and their radioactivities were counted. The results were expressed as percentages of injected dose per gram tissue (% ID/g).

[2] = system: SNU-C4 xenografted nude mice; test: PET imaging of tumor xenografted mice; assay type: in vivo, mouse; settings: PET at 1 and 2 hr post-injection, FIG. 2
Experimental: Human colon cancer cell line SNU-C4 was cultured in RPMI1640 media containing 10% fetal bovine serum and harvested using trypsin. The cells were washed using 10 mL PBS and centrifugation at 3,000 rpm. Each nude mouse was injected with 2×10^5 cells/0.1 mL on the right shoulder subcutaneously. On 14 days post-injection, each 10 μCi/0.1 mL of ^68Ga labeled agent was injected into the xenografted mice through the tail vein. The injected mice were anesthetized using 2% isoflurane, PET images were obtained at 1 and 2 hr post-injection using rodent R4, microPET scanner (Concorde Microsystem Inc.). The images were analyzed using ASIPro software (Concorde Microsystem Inc.).

Hep3B cells = test: In vitro cell uptake, Hep3B (FIG. 1c); assay type: cell-based, human; settings: control ^68Ga-NOTA
[3] = 10 min after intravenous injection
[4] = 30 min after intravenous injection
[5] = 1 hr after intravenous injection
[6] = 2 hr after intravenous injection

For `NC(CNC(=O)CN1CCN(CC(=O)[O-])CCN(CC(=O)[O-])CCN(CC(=O)[O-])CC1)C(=O)O.[68Ga+3]` (stereo not drawn) [^68Ga-DOTA-ala], the “tumor cell uptake versus control agents” value (U87MG cells) was “significantly increase tumor cell uptakes”, the “% ID/g Tumor” value [1, 3] was 3.33 ± 0.58 % ID/g and the “% ID/g Tumor” value [1, 4] was 2.23 ± 0.64 % ID/g. The “% ID/g Tumor” value [1, 5] was 0.93 ± 0.22 % ID/g, the “% ID/g Tumor” value [1, 6] was 0.66 ± 0.25 % ID/g and the “tumor uptake compared with the control heterocyclic compound (in words)” value ([1]; SNU-C4 xenografted nude mice, 10 min to 2 hr) was “higher than that of ^68Ga-DOTA at all time point”. For the same compound, the “% ID/g Blood” value [1, 3] was 7.87 ± 1.11 % ID/g, the “% ID/g Blood” value [1, 4] was 2.63 ± 0.11 % ID/g and the “% ID/g Blood” value [1, 5] was 1.30 ± 0.28 % ID/g. For the same compound, the “% ID/g Blood” value [1, 6] was 0.65 ± 0.11 % ID/g, the “% ID/g Bone” value [1, 3] was 2.52 ± 0.64 % ID/g and the “% ID/g Bone” value [1, 4] was 1.20 ± 0.17 % ID/g. For the same compound, the “% ID/g Bone” value [1, 5] was 0.90 ± 0.12 % ID/g, the “% ID/g Bone” value [1, 6] was 0.70 ± 0.26 % ID/g and the “% ID/g Heart” value [1, 3] was 2.19 ± 0.47 % ID/g. The “% ID/g Heart” value [1, 4] was 0.78 ± 0.07 % ID/g, the “% ID/g Heart” value [1, 5] was 0.43 ± 0.10 % ID/g and the “% ID/g Heart” value [1, 6] was 0.15 ± 0.05 % ID/g. For the same compound, the “% ID/g Intestine” value [1, 3] was 1.91 ± 0.48 % ID/g, the “% ID/g Intestine” value [1, 4] was 0.74 ± 0.11 % ID/g and the “% ID/g Intestine” value [1, 5] was 0.52 ± 0.10 % ID/g. For the same compound, the “% ID/g Intestine” value [1, 6] was 0.40 ± 0.10 % ID/g, the “% ID/g Kidney” value [1, 3] was 50.94 ± 18.62 % ID/g and the “% ID/g Kidney” value [1, 4] was 44.79 ± 11.99 % ID/g. For the same compound, the “% ID/g Kidney” value [1, 5] was 67.43 ± 16.10 % ID/g, the “% ID/g Kidney” value [1, 6] was 48.79 ± 20.36 % ID/g and the “% ID/g Liver” value [1, 3] was 1.57 ± 0.22 % ID/g. For the same compound, the “% ID/g Liver” value [1, 4] was 0.80 ± 0.12 % ID/g, the “% ID/g Liver” value [1, 5] was 0.56 ± 0.06 % ID/g and the “% ID/g Liver” value [1, 6] was 0.39 ± 0.10 % ID/g. For the same compound, the “% ID/g Muscle” value [1, 3] was 2.12 ± 0.64 % ID/g, the “% ID/g Muscle” value [1, 4] was 0.90 ± 0.11 % ID/g and the “% ID/g Muscle” value [1, 5] was 0.47 ± 0.16 % ID/g. For the same compound, the “% ID/g Muscle” value [1, 6] was 0.14 ± 0.03 % ID/g, the “% ID/g Spleen” value [1, 3] was 1.64 ± 0.26 % ID/g and the “% ID/g Spleen” value [1, 4] was 0.74 ± 0.10 % ID/g. For the same compound, the “% ID/g Spleen” value [1, 5] was 0.47 ± 0.04 % ID/g, the “% ID/g Spleen” value [1, 6] was 0.33 ± 0.08 % ID/g and the “% ID/g Stomach” value [1, 3] was 2.63 ± 0.63 % ID/g. The “% ID/g Stomach” value [1, 4] was 0.90 ± 0.17 % ID/g, the “% ID/g Stomach” value [1, 5] was 0.45 ± 0.10 % ID/g and the “% ID/g Stomach” value [1, 6] was 0.21 ± 0.05 % ID/g. For the same compound, the “tumor uptake in PET images” value [2] was “high tumor uptakes”.

With `O=C([O-])CN1CCN(CC(=O)[O-])CCN(CC(=O)[O-])CC1.[68Ga+3]` [^68Ga-NOTA, reference compound] the “% ID/g Tumor” value [1, 3] was 2.69 ± 0.19 % ID/g, the “% ID/g Tumor” value [1, 4] was 1.28 ± 0.22 % ID/g and the “% ID/g Tumor” value [1, 5] was 0.59 ± 0.18 % ID/g. For the same compound, the “% ID/g Tumor” value [1, 6] was 0.43 ± 0.06 % ID/g, the “% ID/g Blood” value [1, 3] was 7.13 ± 0.77 % ID/g and the “% ID/g Blood” value [1, 4] was 2.55 ± 0.31 % ID/g. The “% ID/g Blood” value [1, 5] was 0.41 ± 0.24 % ID/g, the “% ID/g Blood” value [1, 6] was 0.07 ± 0.00 % ID/g and the “% ID/g Bone” value [1, 3] was 1.95 ± 0.06 % ID/g. The “% ID/g Bone” value [1, 4] was 0.65 ± 0.16 % ID/g, the “% ID/g Bone” value [1, 5] was 0.15 ± 0.09 % ID/g and the “% ID/g Bone” value [1, 6] was 0.06 ± 0.07 % ID/g. The “% ID/g Heart” value [1, 3] was 1.83 ± 0.16 % ID/g, the “% ID/g Heart” value [1, 4] was 0.59 ± 0.07 % ID/g and the “% ID/g Heart” value [1, 5] was 0.15 ± 0.10 % ID/g. For the same compound, the “% ID/g Heart” value [1, 6] was 0.07 ± 0.07 % ID/g, the “% ID/g Intestine” value [1, 3] was 1.52 ± 0.08 % ID/g and the “% ID/g Intestine” value [1, 4] was 0.84 ± 0.10 % ID/g. The “% ID/g Intestine” value [1, 5] was 0.33 ± 0.14 % ID/g, the “% ID/g Intestine” value [1, 6] was 0.47 ± 0.17 % ID/g and the “% ID/g Kidney” value [1, 3] was 11.61 ± 0.61 % ID/g. For the same compound, the “% ID/g Kidney” value [1, 4] was 7.44 ± 1.29 % ID/g, the “% ID/g Kidney” value [1, 5] was 3.56 ± 2.10 % ID/g and the “% ID/g Kidney” value [1, 6] was 2.73 ± 0.32 % ID/g. The “% ID/g Liver” value [1, 3] was 1.98 ± 0.19 % ID/g, the “% ID/g Liver” value [1, 4] was 1.44 ± 0.29 % ID/g and the “% ID/g Liver” value [1, 5] was 1.04 ± 0.35 % ID/g. For the same compound, the “% ID/g Liver” value [1, 6] was 1.21 ± 0.21 % ID/g, the “% ID/g Muscle” value [1, 3] was 1.68 ± 0.86 % ID/g and the “% ID/g Muscle” value [1, 4] was 0.77 ± 0.19 % ID/g. For the same compound, the “% ID/g Muscle” value [1, 5] was 0.20 ± 0.17 % ID/g, the “% ID/g Muscle” value [1, 6] was 0.04 ± 0.01 % ID/g and the “% ID/g Spleen” value [1, 3] was 1.41 ± 0.19 % ID/g. For the same compound, the “% ID/g Spleen” value [1, 4] was 0.62 ± 0.09 % ID/g, the “% ID/g Spleen” value [1, 5] was 0.22 ± 0.09 % ID/g and the “% ID/g Spleen” value [1, 6] was 0.19 ± 0.03 % ID/g. For the same compound, the “% ID/g Stomach” value [1, 3] was 2.13 ± 0.26 % ID/g, the “% ID/g Stomach” value [1, 4] was 0.76 ± 0.31 % ID/g and the “% ID/g Stomach” value [1, 5] was 0.20 ± 0.10 % ID/g. The “% ID/g Stomach” value [1, 6] was 0.11 ± 0.03 % ID/g.

In the case of `NC(CCCCNC(=O)CN1CCN(CC(=O)[O-])CCN(CC(=O)[O-])CC1)C(=O)[O-].[68Ga+3]` (stereo not drawn) [^68Ga-NOTA-lys], the “tumor cell uptake versus control agents” value (Hep3B cells) is reported as “significantly increase tumor cell uptakes”.
